Experimental data taken from US8410174B2, “Method for treating arthritis” (AnaMar AB, priority 2000, dated 2013).

Key:
MC4 [1] = target: T1, MC4 (Homo sapiens, UniProt P32245); experiment: Stimulation of cAMP, MC4; type: cell-based
Procedure: (§1) The stimulation of cAMP was carried out essentially as described by Schiöth et al, Br J Pharmacol 1998; 124; 75-82.

MC5 [2] = target: T2, MC5 (Homo sapiens, UniProt P33032); experiment: Affinity for the MC5-receptors, binding assay with I125-NDP-αMSH as ligand; conditions: read-out: Affinity for MC-receptors Ki MC5
Procedure: (§2) Test 2. Affinity for the MC3-Receptors, the MC4-Receptors and the MC5-Receptors
(§3) The binding assays were carried out essentially as described by Szardenings et al, J Biol Chem 1997; 272; 27943-27948 and Schiöth et al, FEES Lett 1997; 410; 223-228 using I^125-NDP-αMSH as ligand.

MC5 [3] = target: T2, MC5; experiment: Stimulation of cAMP, MC5; type: cell-based
Procedure: as §1

MC1-receptor = MC1-receptor (Mus musculus, UniProt Q01727); experiment: Affinity for the MC1-receptor, binding assay with I125-NDP-αMSH as ligand; conditions: read-out: Affinity for MC-receptors Ki MC1
Procedure: Test 1. Affinity for the MC1-receptor
The binding assay was carried out essentially as described by Lunec et al, Melanoma Res 1992; 2; 5-12, using I^125-NDP-αMSH as ligand.

MC4 [4] = target: T1, MC4; experiment: Affinity for the MC4-receptors, binding assay with I125-NDP-αMSH as ligand; conditions: read-out: Affinity for MC-receptors Ki MC4
Procedure: as §2, §3

MC3 [5] = target: T3, MC3 (Homo sapiens, UniProt P41968); experiment: Affinity for the MC3-receptors, binding assay with I125-NDP-αMSH as ligand; conditions: read-out: Affinity for MC-receptors Ki MC3
Procedure: as §2, §3

MC3 [6] = target: T3, MC3; experiment: Stimulation of cAMP, MC3; type: cell-based
Procedure: as §1

MC1 = MC1 (Homo sapiens, UniProt Q01726); experiment: Stimulation of cAMP, MC1; type: cell-based
Procedure: as §1

melanocortin receptors = experiment: Affinity to the melanocortin receptors; type: binding

T1 sequence (P32245 whole entry): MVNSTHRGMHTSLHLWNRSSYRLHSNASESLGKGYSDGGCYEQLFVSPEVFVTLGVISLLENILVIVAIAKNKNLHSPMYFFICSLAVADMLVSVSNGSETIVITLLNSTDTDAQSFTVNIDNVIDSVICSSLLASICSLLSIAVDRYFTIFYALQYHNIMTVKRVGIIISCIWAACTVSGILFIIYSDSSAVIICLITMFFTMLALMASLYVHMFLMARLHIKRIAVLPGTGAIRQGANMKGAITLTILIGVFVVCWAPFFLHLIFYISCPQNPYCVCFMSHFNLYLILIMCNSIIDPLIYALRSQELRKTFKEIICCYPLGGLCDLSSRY
T3 sequence (P41968 whole entry): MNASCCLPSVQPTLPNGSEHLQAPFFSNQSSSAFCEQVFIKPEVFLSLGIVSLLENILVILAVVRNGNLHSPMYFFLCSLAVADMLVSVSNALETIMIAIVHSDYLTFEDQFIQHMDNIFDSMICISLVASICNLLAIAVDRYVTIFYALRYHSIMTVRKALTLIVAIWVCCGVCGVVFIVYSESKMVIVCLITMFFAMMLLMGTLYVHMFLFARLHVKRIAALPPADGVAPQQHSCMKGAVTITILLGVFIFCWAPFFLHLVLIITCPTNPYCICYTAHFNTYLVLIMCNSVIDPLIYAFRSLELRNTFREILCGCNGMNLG
T2 sequence (P33032 whole entry): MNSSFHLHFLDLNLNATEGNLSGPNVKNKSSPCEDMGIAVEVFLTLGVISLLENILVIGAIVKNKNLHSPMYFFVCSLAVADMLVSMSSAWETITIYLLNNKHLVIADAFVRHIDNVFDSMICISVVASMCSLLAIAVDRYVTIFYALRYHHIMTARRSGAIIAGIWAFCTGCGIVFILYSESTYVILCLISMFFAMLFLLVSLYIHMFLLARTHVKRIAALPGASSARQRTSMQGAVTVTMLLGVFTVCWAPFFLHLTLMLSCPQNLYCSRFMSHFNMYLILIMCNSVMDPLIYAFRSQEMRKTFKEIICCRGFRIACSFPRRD
MC1-receptor, sequence (Q01727 whole entry): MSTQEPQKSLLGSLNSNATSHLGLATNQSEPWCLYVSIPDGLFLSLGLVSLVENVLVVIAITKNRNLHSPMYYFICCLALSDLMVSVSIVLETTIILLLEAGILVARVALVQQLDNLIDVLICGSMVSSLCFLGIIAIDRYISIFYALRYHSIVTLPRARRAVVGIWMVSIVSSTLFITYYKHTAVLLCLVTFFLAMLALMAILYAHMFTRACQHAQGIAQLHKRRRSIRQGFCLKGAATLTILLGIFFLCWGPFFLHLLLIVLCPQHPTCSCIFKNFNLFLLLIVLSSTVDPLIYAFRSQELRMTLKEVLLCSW
MC1, sequence (Q01726 whole entry): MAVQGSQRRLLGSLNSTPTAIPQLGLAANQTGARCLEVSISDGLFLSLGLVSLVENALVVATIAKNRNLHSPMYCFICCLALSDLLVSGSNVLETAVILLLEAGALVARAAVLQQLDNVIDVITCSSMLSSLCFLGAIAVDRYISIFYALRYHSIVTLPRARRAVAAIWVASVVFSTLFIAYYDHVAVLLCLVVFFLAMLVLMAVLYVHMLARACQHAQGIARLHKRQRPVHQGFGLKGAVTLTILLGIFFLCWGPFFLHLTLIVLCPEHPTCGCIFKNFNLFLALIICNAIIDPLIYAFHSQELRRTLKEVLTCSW

SMILES | melting point | further results
CC(=O)O.COc1ccc(C=NNC(=N)N)c(Cl)c1OC | 198 to 200 °C | 
CC(=O)O.COc1cc([N+](=O)[O-])cc(C=NNC(=N)N)c1OC | 191 to 194 °C | 
CC(=O)O.N=C(N)NN=Cc1ccc(F)c(F)c1 | 176 to 178 °C | 
CC(=O)O.N=C(N)NN=Cc1cc([N+](=O)[O-])ccc1F | 192 to 195 °C | 
CC(=O)O.N=C(N)NN=Cc1ccc(Br)cc1F | 187 to 188 °C | 
CC(=O)O.N=C(N)NN=Cc1c(F)cccc1F | 138.5 to 141 °C | 
COc1cc([N+](=O)[O-])cc(C=NNC(=N)N)c1OC.Cl | 237 to 238 °C | 
CC(=O)O.COc1ccc(C=NNC(=N)N)c(O)c1 | 161 to 164 °C | 
CC(=O)O.N=C(N)NN=Cc1ccc(Br)c([N+](=O)[O-])c1 | 152 to 153 °C | 
Cl.N=C(N)NN=Cc1c(Cl)ccc([N+](=O)[O-])c1[N+](=O)[O-] | 153 to 154.5 °C | 
COc1ccc(C=NNC(=N)N)cc1Br.Cl | 261 to 262.5 °C | 
Cl.N=C(N)NN=Cc1cccc(I)c1 | 203 to 204 °C | 
Cl.N=C(N)NN=Cc1ccccc1S(=O)(=O)O | > 260 °C | 
CC(=O)O.N=C(N)NN=Cc1cc([N+](=O)[O-])ccc1Cl | 222 to 224 °C (dec.) | 
CC(=O)O.N=C(N)NN=Cc1ccc(F)c([N+](=O)[O-])c1 | 222 to 224 °C (dec.) | 
CC(=O)O.COc1ccc(C=NNC(=N)N)cc1[N+](=O)[O-] | 144 to 147 °C | 
COc1cc([N+](=O)[O-])cc(C=NNC(=N)NO)c1OC.Cl | 196 to 197.5 °C | 
CC(=O)O.N=C(N)NN=Cc1cc(F)cc(F)c1[N+](=O)[O-] | 231 to 233 °C | 
CC(=O)O.N=C(N)NN=Cc1cc(Cl)cc(Cl)c1[N+](=O)[O-] | 88 to 91 °C | 
COc1cc([N+](=O)[O-])cc(C=NNC(=N)N)c1O.Cl | 243 to 246 °C | 
CC(=O)O.COc1c(Cl)cc(C=NNC(=N)N)cc1[N+](=O)[O-] | 255 to 258 °C (dec.) | 
CC(=O)O.COc1c(Cl)cc(C=NNC(=N)N)cc1Cl | 185 to 190 °C | 
CC(=O)O.COc1c(C)cc(C=NNC(=N)N)cc1Br | 163 to 166 °C | 
COc1ccc(C=NNC(=N)N)c(OC)c1OC.Cl | 181 to 183 °C | 
CC(=O)O.COc1cc(Cl)c([N+](=O)[O-])cc1C=NNC(=N)N | 196 to 199 °C | 

SMILES | melting point | further results
CC(=O)O.N=C(N)NN=Cc1c(Cl)ccc(Cl)c1[N+](=O)[O-] | 219.5 to 221 °C | 
Cc1cc(O)c(C=NNC(=N)N)cc1[N+](=O)[O-].Cl | 229 to 230 °C | 
CC(=O)O.N=C(N)NN=Cc1cc(Cl)cc([N+](=O)[O-])c1Br | 136.5 to 137 °C | 
CC(=O)O.Cc1ccc(C=NNC(=N)N)c([N+](=O)[O-])c1O | 240 to 241 °C | 
Cc1cc([N+](=O)[O-])c(C=NNC(=N)N)cc1Br.Cl | 246.5 to 248 °C | 
Cl.N=C(N)NN=Cc1cc(Br)cc([N+](=O)[O-])c1O | > 250 °C | 
COc1c(C=NNC(=N)N)cc(Br)cc1[N+](=O)[O-].Cl | 258 to 259 °C | 
CC(=O)O.COc1cc(OC)c([N+](=O)[O-])cc1C=NNC(=N)N | 207 to 210 °C | 
CC(=O)O.N=C(N)NN=Cc1cc([N+](=O)[O-])c(Br)cc1F | 175 to 198 °C (dec.) | 
CC(=O)O.COc1cc(C=NNC(=N)N)cc(OC)c1OC | 223 to 225 °C | 
CC(=O)O.COc1cc(OC)c(C=NNC(=N)N)c(OC)c1 | 66 to 68 °C | 
CC(=O)O.N=C(N)NN=Cc1ccc([N+](=O)[O-])cc1[N+](=O)[O-] | 224 to 226 °C | 
CC(=O)O.COc1cc(O)c(C=NNC(=N)N)c(OC)c1 | 115 to 118 °C | 
CC(=O)O.N=C(N)NN=Cc1ccc(F)c(Br)c1 | 172 to 173.5 °C | 
CC(=O)O.N=C(N)NN=Cc1cccc(F)c1F | 149 to 151.5 °C | 
COc1ccc([N+](=O)[O-])c(C=NNC(=N)N)c1[N+](=O)[O-].Cl | 217 to 218 °C | 
Cl.N=C(N)NN=Cc1c([N+](=O)[O-])ccc(Br)c1[N+](=O)[O-] | 166.5 to 168 °C | 
CC(=O)O.COc1cc([N+](=O)[O-])c([N+](=O)[O-])c(C=NNC(=N)N)c1OC | 165 to 171 °C | 
CC(=O)O.N=C(N)NN=Cc1cc([N+](=O)[O-])cc([N+](=O)[O-])c1.O.O (hydrate or solvate) | 251 to 254 °C (dec.) | 
COc1ccc(C=NNC(=N)NO)cc1Br.Cc1ccc(S(=O)(=O)O)cc1 [1:3, N-(3-Bromo-4-methoxybenzylideneamino)-N′-hydroxyguanidine tosylate] |  | Influence on cAMP MC4c (MC4 [1]): 31.8; Ki (MC5 [2]): 47 µM; Influence on cAMP MC5c (MC5 [3]): 4.7; Ki (MC1-receptor): 42 µM; Ki (MC4 [4]): 62 µM; Ki (MC3 [5]): 91 µM; Influence on cAMP MC3c (MC3 [6]): 16; Influence on cAMP MC1c (MC1): 8.4
Cc1ccc(S(=O)(=O)O)cc1.N=C(NO)NN=Cc1cc(Cl)ccc1[N+](=O)[O-] [1:4, N-(5-Chloro-2-nitrobenzylideneamino)-N′-hydroxyguanidine tosylate] |  | Influence on cAMP MC4c (MC4 [1]): 17.1; Ki (MC5 [2]): 33 µM; Influence on cAMP MC5c (MC5 [3]): 8.7; Ki (MC1-receptor): 42 µM; Ki (MC4 [4]): 61 µM; Ki (MC3 [5]): 68 µM; Influence on cAMP MC3c (MC3 [6]): 1; Influence on cAMP MC1c (MC1): 6.4
COc1ccc(C=NNC(=N)NO)cc1[N+](=O)[O-] [1:76, N-(4-Methoxy-3-nitrobenzylideneamino)-N′-hydroxyguanidine] | 219 to 221 °C | 
N=C(NO)NN=Cc1ccccc1S(=O)(=O)O [1:134, N-(2-Sulphobenzylideneamino)-N′-hydroxyguanidine] | 243.5 to 244 °C | 
N=C(N)N/N=C/c1c(Cl)cccc1Cl [Guanabenz] |  | affinity to the melanocortin receptors (melanocortin receptors): no affinity
